Results from US20090221683A1, “Combination of CXCR4 Antagonist and Morphogen to Increase Angiogenesis” (Caritas St.Elizabeth Medical Center of Boston, Inc, priority 2005, published 2009).
Where two headings read alike, the source gives them in different places.

Experiments:
[1] = tested on: peripheral blood MNCs and EPCs
Experimental: (§1) Peripheral blood mononuclear cells (PBMNCs) were isolated from 500 μl of peripheral blood obtained from each mouse. PBMNCs were cultured in EBM media (Clonetics, San Diego, Calif.) supplemented with 5% fetal bovine serum (FBS), antibiotics, and growth factors (EPC medium) on four 4-well glass slides coated with rat plasma vitronectin (Sigma) in 0.5% gelatin solution. Four days after culture, EPCs, recognized as attaching spindle-shaped cells, were assayed by co-staining with acetylated LDL (acLDL)-DiI (Biomedical Technologies, Stoughton, Mass.) and Bandeiraea simplicifolia (BS-1) lectin I (Vector Laboratories, Burlingame, Calif.), characteristics indicators of endothelial lineage, and conjugated with FITC (Sigma). Fluorescent microscopy identified double-positive cells as […] The numbers of double-positive cells per sample, measured in fifteen fields under 20× magnification, was were counted per sample in a blinded manner.
(§2) Such methods can be used for study of the compositions and methods of the instant invention.

[2] = tested on: FVB mice with myocardial infarction; settings: for FS (fractional shortening) / LVDd (left ventricular diastolic dimension) / LVDs (left ventricular systolic dimension) / LV + dP/dt / LV − dP/dt / LVEDP (left ventricular end-diastolic pressure) / LVSP (left ventricular systolic pressure): mean ± SE
Experimental: (§3) Eight-week old male FVB mice were anesthetized with sodium pentobarbital (50 mg/kg IP). The animals were intubated orally with a 22G IV catheter and artificially ventilated with a respirator (Harvard Apparatus). A left intercostal thoracotomy was performed and the ribs were retracted with 5-0 polypropylene sutures. After the pericardium was opened, the left anterior descending (LAD) branch of the left coronary artery was ligated proximal to the bifurcation between the LAD and the diagonal branch using 8-0 polypropylene sutures and visualized with a dissecting microscope. Positive end-expiratory pressure was applied to fully inflate the lungs, and the chest was closed with 7-0 polypropylene sutures. […] After physiological assessment at one, two and four weeks after MI, a subgroup of the mice were euthanized by intravenous administration of a lethal dose of pentobarbital.
Transthoracic echocardiography (SONOS 5500, Hewlett Packard) was performed just before MI and one, two and four weeks after MI. Left ventricular diastolic (LVDd) and systolic (LVDs) dimensions and fractional shortening were measured at the mid-papillary muscle level. Hemodynamic measurements were obtained at two and four weeks after MI using a 1.0-French high-fidelity pressure catheter (Millar Instruments, Houston, Tex.) via the left carotid artery. LV systolic pressure and maximal positive (+dP/dt) and negative (−dP/dt) pressure development were recorded after stabilization of LV function and heart rate. Such methods can be used for study of the compositions and methods of the instant invention.

mice with AMI = tested on: mice with AMI
Experimental: as §3
All values were expressed as mean±the standard error of the mean. […] Overall survival of all the mice was assessed by Kaplan-Meier analysis. Survival in individual experimental groups was also analyzed by Fisher's extract probability test. A p value of less than 0.05 was considered statistically significant.

left ventricle fibrosis = settings: two weeks after AMI
Experimental: (§4) The explanted hearts of sacrificed mice were sliced in a bread-loaf fashion into transverse sections from apex to base (base-, mid-, and apex-portions) and fixed with 4% paraformaldehyde. Tissues were embedded in paraffin and sectioned for elastic tissue/trichrome staining and immunohistochemistry using the murine-specific EC marker Bandeiraea simplicifolia lectin I (Isolectin B4) (Vector laboratories).
(§5) Capillary density was assessed by histological examination of five randomly selected fields of tissue sections from segments of the left ventricular myocardium served by the occluded LAD. Capillaries were recognized as tubular structures positive for isolectin B4. Elastic tissue/trichrome-stained tissues from the mice four weeks after MI were used to measure the average ratio of the external circumference of fibrosis area to LV area.

[3] = tested on: left ventricular myocardium border zone capillaries; settings: two weeks after AMI
Experimental: as §4, §5

peripheral blood EPCs = tested on: peripheral blood EPCs
Experimental: as §1
At each time point after the induction of MI, mononuclear cells were isolated from peripheral blood and total BM cells that had been obtained by flushing the tibias and femurs. EPCs were counted by culturing as described in Example 1, and stained with both acLDL-DiI and BS-1 lectin. Double positive cells were counted in 15 fields under objective 20× magnification per sample in a blinded manner.

[4] = tested on: bone marrow EPCs (Sca-1/Flk-1 positive); settings: one week after MI
Experimental: (§6) Fluorescence-activated cell sorting (FACS) was used to identify EPCs from mononuclear cells isolated both from peripheral blood and bone marrow. The viable mononuclear cell population was analyzed for the expression of Sca-1-FITC (Pharmingen) and Flk-1 (Santa Cruz) conjugated with the corresponding phycoerythrin-labeled secondary antibody (Sigma). Isotype-identical antibodies served as negative controls. Immunofluorescence-labeled cells were fixed with 2% paraformaldehyde and analyzed by quantitative flow cytometry using a FACStar flow cytometer (Becton Dickinson) and Cell Quest Software that counted 10,000 events per sample.

[5] = tested on: peripheral blood EPCs (Sca-1/Flk-1 positive); settings: one week after MI
Experimental: as §6

MMP-2 mRNA = settings: one week after MI; RT-PCR
Experimental: (§7) RNA was extracted from mononuclear cells isolated from bone marrow using TRIzol reagent (Invitrogen) according to the manufacture's instruction. Reverse transcriptase-polymerase chain reaction (RT-PCR) of the MMP-9 and GAPDH genes was performed using 1 pg of total RNA. PCR was performed for 25 cycles for both MMP-9 and GAPDH; each cycle maintained 94° C. for 30 seconds and 64° C. for three minutes. Amplification was carried out in 20-μl reaction mixtures containing 0.4 U Taq polymerase.

MMP-9 mRNA = settings: one week after MI; RT-PCR
Experimental: as §7

[6] = tested on: bone marrow EPCs (Sca-1/Flk-1 positive) of MMP-9-/- mice; settings: 1 week after MI
From the text: MMP-9 expression was disrupted by deleting of most of exon 2 of the MMP-9 gene in the 129/SvEv genetic background (Jackson), as described previously. [Vu, 1998 #2370] […] Mononuclear cells from peripheral blood and total BM cells were isolated one week after MI and were examined by FACS analysis as described above.

[7] = tested on: bone marrow derived EPCs (X-gal positive cells); settings: Tie2-LacZ/BMT mice
From the text: as §2, §2

[8] = tested on: bone-marrow derived endothelial cells (double-positive cells); settings: one week after AMI
From the text: as §2
Apex-sections from the Tie-2/LZ/BMT mice were embedded in OCT compound (Miles Scientific) and snap-frozen in liquid nitrogen for fluorescence microscopy immediately after sacrifice.
Sections of ischemic (FIGS. 12A-12F) and intact (FIGS. 13A-13F) myocardium were stained for both BS lectin 1 (green fluorescence) and β-galactosidase (red fluorescence). […] Such methods can be used for study of the compositions and methods of the instant invention.

circulating EPC = settings: 2 hour after treatment; 240 μg/kg SC
Experimental: (§8) Methods: Using wild-type rats, MI was induced by ligation of the left anterior descending artery. […] 4 weeks after treatment, echocardiography, hemodynamic measurement and histological examination were performed.

[9] = tested on: border zone between scar and normal tissue capillaries; test: Chronic MI rats: capillary density in the border zone; type: in vivo, rat; settings: 4 weeks after treatment
Experimental: as §8

[10] = 1 week after MI, 125 μg s.c. single injection
[11] = 2 weeks after MI, 125 μg s.c. single injection
[12] = 2 weeks after MI, 125 μg s.c. single injection, listed as AMD
[13] = 2 weeks after MI, listed as AMD
[14] = 4 weeks after MI, 125 μg s.c. single injection
[15] = 4 weeks after MI, 125 μg s.c. single injection, listed as AMD
[16] = 4 weeks after MI, listed as AMD

Compound: c1cc(CN2CCCNCCNCCCNCC2)ccc1CN1CCCNCCNCCCNCC1 [AMD-3100, 1,1′-[1,4-phenylene-bis(methylene)]-bis-1,4,8,11-tetraazacyclotetradecane]
- maximal MNCs and EPCs (acLDL uptake and BS-1 lectin double-positive cells) ([1]; 1 hour after single s.c. injection of 125 μg, n=5 experiments): 613±89 cells/mm^2
- time for number of EPCs/MNCs to return to baseline after injection ([1]; single s.c. injection of 125 μg): ≤ 24 h
- FS (fractional shortening) [2, 10]: 35 ± 2%
- LVDd (left ventricular diastolic dimension) [2, 10]: 3.5 ± 0.1 mm
- LVDs (left ventricular systolic dimension) [2, 10]: 2.2 ± 0.1 mm
- FS (fractional shortening) [2, 11]: 34±1%
- LVDd (left ventricular diastolic dimension) [2, 11]: 3.8±0.1 mm
- LVDs (left ventricular systolic dimension) [2, 11]: 2.5±0.1 mm
- FS (fractional shortening) [2, 12]: 34±1%
- LVDd (left ventricular diastolic dimension) [2, 12]: 3.8 ± 0.1 mm
- LVDs (left ventricular systolic dimension) [2, 12]: 2.5 ± 0.1 mm
- LVDd (left ventricular diastolic dimension) ([2]; 2 weeks after MI, 125 μg s.c. single injection, listed as AMD3100): 3.8±0.1 mm
- LV + dP/dt ([2]; 2 weeks after MI): 3383±104 mm Hg/s
- LV − dP/dt ([2]; 2 weeks after MI): 2213±113 mm Hg/s
- LVEDP (left ventricular end-diastolic pressure) ([2]; 2 weeks after MI): 1.6±0.4 mmHg
- LVSP (left ventricular systolic pressure) ([2]; 2 weeks after MI): 71±2 mmHg
- LV − dP/dt [2, 13]: 2842 ± 200 mm Hg/s
- LVEDP (left ventricular end-diastolic pressure) [2, 13]: 1.5±0.2 mmHg
- LVSP (left ventricular systolic pressure) [2, 13]: 73 ± 3 mmHg
- LVDs ([2]; 3 wks post-MI (as printed in text)): 2.5±0.2 mm
- LVDd (left ventricular diastolic dimension) [2, 14]: 4.0±0.1 mm
- LVDs (left ventricular systolic dimension) [2, 14]: 2.6±0.2 mm
- FS (fractional shortening) [2, 15]: 28±1%
- LVDd (left ventricular diastolic dimension) [2, 15]: 4.0 ± 0.1 mm
- LVDs (left ventricular systolic dimension) [2, 15]: 2.9 ± 0.1 mm
- LV − dP/dt ([2]; 4 weeks after MI): 2213 ± 112 mm Hg/s
- LV + dP/dt [2, 16]: 3383±104 mm Hg/s
- LVEDP (left ventricular end-diastolic pressure) [2, 16]: 1.6±0.4 mmHg
- LVSP (left ventricular systolic pressure) [2, 16]: 71±2 mmHg
- FS (fractional shortening) ([2]; Before MI (baseline)): 52 ± 1%
- LVDd (left ventricular diastolic dimension) ([2]; Before MI (baseline)): 2.8 ± 0.1 mm
- LVDs (left ventricular systolic dimension) ([2]; Before MI (baseline)): 1.4 ± 0.1 mm
- difference in left ventricular systolic pressure (LVSP) between the groups ([2]; two weeks after MI): no significant difference
- mice still living (survival rate) (mice with AMI; 14 weeks after AMI, FIG. 4A): 64%
- mice died (mice with AMI; another group of mice, four weeks after MI, FIG. 4B): 42%
- survival rate versus mice receiving saline (mice with AMI; four weeks after MI, P<0.05): higher
- fibrosis area of left ventricle (left ventricle fibrosis): 25±6%
- capillary density in the border zone [3]: 4005±189 /mm^2
- number of cultured EPCs (peripheral blood EPCs; four weeks after AMI): returned to basline
- number of EPCs in the peripheral blood (cultured, acLDL-DiI/BS-1 lectin double positive) (peripheral blood EPCs; one week after AMI): 868±210 /mm^2
- number of EPCs in the peripheral blood (cultured, acLDL-DiI/BS-1 lectin double positive) (peripheral blood EPCs; two weeks after AMI): 556±47 /mm^2
- EPCs (Sca-1/Flk-1 positive) in BM mononuclear cells by FACS [4]: 1.9±0.1%
- EPCs (Sca-1/Flk-1 positive) in peripheral blood mononuclear cells by FACS [5]: 11.3±1.4%
- MMP-2 mRNA expression in BM-mononuclear cells (MMP-2 mRNA): but not MMP-2
- MMP-9 mRNA expression in BM-mononuclear cells (MMP-9 mRNA): enhanced expression
- difference in Sca-1/Flk-1 positive BM cells versus saline [6]: no significant difference
- number of X-gal positive cells in infarct and border area ([7]; 1 week after AMI): 3776±113 /mm^2
- number of X-gal positive cells in infarct and border area ([7]; 2 weeks after AMI): 1906±138 /mm^2
- double-positive cells (BS lectin 1 and β-galactosidase) ([8]; a representative section): eight
- double-positive cells (BS lectin 1 and β-galactosidase) ([8]; another representative section): eight
- circulating EPC counts relative to baseline (circulating EPC): five
- capillary density in the border zone between scar and normal tissue, increase vs. control [9]: +52%
